Experimental data taken from paper PMC8703412 (Pharmaceuticals, 2021).
≈ marks a conversion by molar mass, not a printed value. Read-outs that look alike come from different tables or passages of the source.

How the values were obtained:
[1] = system: Mycobacterium avium 330/88; experiment: MIC micromethod in Šula's medium, M. avium; type: cell-based
[2] = system: Mycobacterium kansasii 6509/96 (clinical isolate); experiment: MIC micromethod in Šula's medium, M. kansasii; type: cell-based; conditions: Mycobacterium kansasii
[3] = system: Mycobacterium tuberculosis strain 331/88 (i.e., H37Rv); experiment: MIC micromethod in Šula's medium, drug-susceptible Mtb.; type: cell-based
[4] = Cytotoxicity, CellTiter 96 (MTS) assay; conditions: human, Cytotoxicity for HepG2 cells, IC50, 24 h incubation, 1–1000 µM
[5] = Mycobacterium avium, 330/88, 336 h, 14 d incubation, precursors, Table 2, read-out: MIC M. avium 330/88 14 d
[6] = Mycobacterium avium, 330/88, 504 h, 21 d incubation, precursors, Table 2, read-out: MIC M. avium 330/88 21 d
[7] = 168 h, read-out: MIC M. kansasii 6509/96 7 d
[8] = 336 h, 14 d incubation, precursors, Table 2, read-out: MIC M. kansasii 6509/96 14 d
[9] = 504 h, 21 d incubation, precursors, Table 2, read-out: MIC M. kansasii 6509/96 21 d
[10] = Mycobacterium tuberculosis, H37RV, 336 h, 14 d incubation, precursors, Table 2, read-out: MIC Mtb. 331/88 14 d
[11] = Mycobacterium tuberculosis, H37RV, 504 h, 21 d incubation, precursors, Table 2, read-out: MIC Mtb. 331/88 21 d
[12] = Mycobacterium avium, 330/88, 336 h, read-out: MIC M. avium 330/88 14 d
[13] = Mycobacterium avium, 330/88, 504 h, read-out: MIC M. avium 330/88 21 d
[14] = 336 h, read-out: MIC M. kansasii 6509/96 14 d
[15] = 504 h, read-out: MIC M. kansasii 6509/96 21 d
[16] = Mycobacterium avium, 330/88, 336 h, 14 d incubation, Table 1, read-out: MIC M. avium 330/88 14 d
[17] = Mycobacterium avium, 330/88, 504 h, 21 d incubation, Table 1, read-out: MIC M. avium 330/88 21 d
[18] = 168 h, 7 d incubation, Table 1, read-out: MIC M. kansasii 6509/96 7 d
[19] = 168 h, 7 d incubation, precursors, Table 2, read-out: MIC M. kansasii 6509/96 7 d
[20] = 336 h, 14 d incubation, Table 1, read-out: MIC M. kansasii 6509/96 14 d
[21] = Mycobacterium tuberculosis, H37RV, 336 h, 14 d incubation, esters, Table 1, read-out: MIC Mtb. 331/88 14 d
[22] = Mycobacterium tuberculosis, H37RV, 504 h, 21 d incubation, esters, Table 1, read-out: MIC Mtb. 331/88 21 d
[23] = 504 h, 21 d incubation, Table 1, read-out: MIC M. kansasii 6509/96 21 d
[24] = 504 h, text summary over 7, 14 and 21 d, read-out: MIC for M. kansasii 6509/96

Row | Structure (SMILES) | MIC [1, 5] [µM] | MIC [1, 6] [µM] | MIC [2, 7] [µM] | MIC [2, 8] [µM] | MIC [2, 9] [µM] | MIC [3, 10] [µM] | MIC [3, 11] [µM] | MIC [1, 16] [µM] | MIC [1, 17] [µM] | MIC [2, 18] [µM] | MIC [2, 20] [µM] | MIC [3, 21] [µM] | MIC [3, 22] [µM] | IC50 at 24 h [4] [µM] | MIC [2, 23] [µM] | melting point [°C] | also measured
1 | Oc1ccc2ccccc2c1 [2-naphthol, reference compound] | 1000 (≈ 144 µg/mL) | 1000 (≈ 144 µg/mL) | 250 (≈ 36 µg/mL) | 500 (≈ 72.1 µg/mL) | 500 (≈ 72.1 µg/mL) | 500 (≈ 72.1 µg/mL) | 500 (≈ 72.1 µg/mL) | – | – | – | – | – | – | – | – | – | –
2 | Cc1ccc(C(C)C)cc1O [Carvacrol, reference compound] | – | – | 125 (≈ 18.8 µg/mL) | – | – | 125 (≈ 18.8 µg/mL) | 250 (≈ 37.6 µg/mL) | – | – | – | – | – | – | – | – | – | MIC [1, 12]: 250 µM (≈ 37.6 µg/mL); MIC [1, 13]: 500 µM (≈ 75.1 µg/mL); MIC [2, 14]: 250 µM (≈ 37.6 µg/mL); MIC [2, 15]: 500 µM (≈ 75.1 µg/mL)
3 | NNC(=O)c1ccncc1 [INH 1, Isoniazid, reference compound] | – | – | – | 8 (≈ 1.1 µg/mL) | 8 (≈ 1.1 µg/mL) | – | – | > 250 | > 250 | 8 (≈ 1.1 µg/mL) | 8 (≈ 1.1 µg/mL) | 1 (≈ 0.137 µg/mL) | 1 (≈ 0.137 µg/mL) | > 1000 | – | – | MIC ([1]; 14 d incubation, precursors, Table 2, read-out: MIC M. avium 330/88 14 d): >250 µM; MIC ([1]; 21 d incubation, precursors, Table 2, read-out: MIC M. avium 330/88 21 d): >250 µM; MIC [2, 19]: 4 µM (≈ 0.549 µg/mL); MIC [2, 15]: 16 µM (≈ 2.19 µg/mL); MIC ([3]; 14 d incubation, precursors, Table 2, read-out: MIC Mtb. 331/88 14 d): 1 µM (≈ 0.137 µg/mL); MIC ([3]; 21 d incubation, precursors, Table 2, read-out: MIC Mtb. 331/88 21 d): 1 µM (≈ 0.137 µg/mL)
4 | Cc1ncc([N+](=O)[O-])n1CCO [Metronidazole, reference compound] | > 1000 | > 1000 | – | > 1000 | > 1000 | > 1000 | > 1000 | – | – | – | – | – | – | – | – | – | MIC [2, 19]: 1000 µM (≈ 171 µg/mL)
5 | CC(=O)Nc1ccc(OC(=O)C(C)=NNC(=O)c2ccncc2)cc1 [3p, 4-Acetamidophenyl 2-(2-isonicotinoylhydrazineylidene)propanoate] | – | – | – | – | – | – | – | 1000 (≈ 340 µg/mL) | 1000 (≈ 340 µg/mL) | 8 (≈ 2.72 µg/mL) | 16 (≈ 5.45 µg/mL) | 0.25 (≈ 0.0851 µg/mL) | 0.5 (≈ 0.17 µg/mL) | > 1000 | 16 (≈ 5.45 µg/mL) | – | MIC [2, 24]: 8 to 16 µM (≈ 2.72 to 5.45 µg/mL)
6 | Oc1ccc(Oc2ccccc2)cc1 [4-phenoxyphenol, reference compound] | 250 (≈ 46.6 µg/mL) | 500 (≈ 93.1 µg/mL) | – | 64 (≈ 11.9 µg/mL) | 125 (≈ 23.3 µg/mL) | 64 (≈ 11.9 µg/mL) | 64 (≈ 11.9 µg/mL) | – | – | – | – | – | – | – | – | – | MIC [2, 19]: 32 µM (≈ 5.96 µg/mL)
7 | C/C(=N\NC(=O)c1ccncc1)C(=O)Oc1ccc(Cl)cc1 [3g, 4-Chlorophenyl (E)-2-(2-isonicotinoylhydrazineylidene)propanoate] | – | – | – | – | – | – | – | 500 (≈ 159 µg/mL) | 1000 (≈ 318 µg/mL) | 4 (≈ 1.27 µg/mL) | 8 (≈ 2.54 µg/mL) | ≤ 0.125 | ≤ 0.125 | > 1000 | 16 (≈ 5.08 µg/mL) | 184 to 186.1 | –
8 | C/C(=N\NC(=O)c1ccncc1)C(=O)Oc1ccc(C)cc1 [3c, p-Tolyl (E)-2-(2-isonicotinoylhydrazineylidene)propanoate] | – | – | – | – | – | – | – | > 250 | > 250 | 8 (≈ 2.38 µg/mL) | 8 (≈ 2.38 µg/mL) | ≤ 0.25 | 0.5 (≈ 0.149 µg/mL) | > 1000 | 8 (≈ 2.38 µg/mL) | 168 to 170 | –
9 | C/C(=N\NC(=O)c1ccncc1)C(=O)Oc1ccc(Br)cc1 [3h, 4-Bromophenyl (E)-2-(2-isonicotinoylhydrazineylidene)propanoate] | – | – | – | – | – | – | – | 250 (≈ 90.5 µg/mL) | 500 (≈ 181 µg/mL) | 8 (≈ 2.9 µg/mL) | 8 (≈ 2.9 µg/mL) | ≤ 0.125 | 0.25 (≈ 0.0905 µg/mL) | > 1000 | 16 (≈ 5.79 µg/mL) | 190 to 192 | MIC [2, 24]: 8 to 16 µM (≈ 2.9 to 5.79 µg/mL)
10 | C/C(=N\NC(=O)c1ccncc1)C(=O)OCc1ccncc1 [3n, Pyridin-4-ylmethyl (E)-2-(2-isonicotinoylhydrazineylidene)propanoate] | – | – | – | – | – | – | – | ≥ 1000 | ≥ 1000 | 8 (≈ 2.39 µg/mL) | 16 (≈ 4.77 µg/mL) | 0.5 (≈ 0.149 µg/mL) | 1 (≈ 0.298 µg/mL) | > 1000 | 16 (≈ 4.77 µg/mL) | 126 to 128 | MIC [2, 24]: 8 to 16 µM (≈ 2.39 to 4.77 µg/mL); MIC ([3]; Mycobacterium tuberculosis, H37RV, 504 h, 14 and 21 d, read-out: MIC for Mtb.): 0.5 to 1 µM (≈ 0.149 to 0.298 µg/mL)
11 | Cc1ccc(C(C)C)c(O)c1 [Thymol, reference compound] | 250 (≈ 37.6 µg/mL) | 500 (≈ 75.1 µg/mL) | 125 (≈ 18.8 µg/mL) | 250 (≈ 37.6 µg/mL) | 500 (≈ 75.1 µg/mL) | 64 (≈ 9.61 µg/mL) | 125 (≈ 18.8 µg/mL) | – | – | – | – | – | – | – | – | – | –
12 | COC(=O)/C(C)=N/NC(=O)c1ccncc1 [3a, Methyl (E)-2-(2-isonicotinoylhydrazineylidene)propanoate] | – | – | – | – | – | – | – | 500 (≈ 111 µg/mL) | 1000 (≈ 221 µg/mL) | 2 (≈ 0.442 µg/mL) | 4 (≈ 0.885 µg/mL) | 0.25 (≈ 0.0553 µg/mL) | 0.25 (≈ 0.0553 µg/mL) | > 1000 | 8 (≈ 1.77 µg/mL) | 122 to 124.8 | –
13 | Oc1cc(Cl)ccc1Oc1ccc(Cl)cc1Cl [Triclosan, 5-chloro-2-(2,4-dichlorophenoxy)phenol, reference compound] | – | – | 16 (≈ 4.63 µg/mL) | – | – | 32 (≈ 9.27 µg/mL) | 32 (≈ 9.27 µg/mL) | – | – | – | – | – | – | – | – | – | MIC [1, 12]: 64 µM (≈ 18.5 µg/mL); MIC [1, 13]: 64 µM (≈ 18.5 µg/mL); MIC [2, 14]: 32 µM (≈ 9.27 µg/mL); MIC [2, 15]: 32 µM (≈ 9.27 µg/mL)
14 | Oc1cccc2ccccc12 [1-naphthol, reference compound] | 500 (≈ 72.1 µg/mL) | 500 (≈ 72.1 µg/mL) | – | 250 (≈ 36 µg/mL) | 500 (≈ 72.1 µg/mL) | 250 (≈ 36 µg/mL) | 500 (≈ 72.1 µg/mL) | – | – | – | – | – | – | – | – | – | MIC [2, 19]: 125 µM (≈ 18 µg/mL)
15 | Oc1cccc2cccnc12 [Quinolin-8-ol, reference compound] | – | – | 16 (≈ 2.32 µg/mL) | – | – | 8 (≈ 1.16 µg/mL) | 8 (≈ 1.16 µg/mL) | – | – | – | – | – | – | – | – | – | MIC [1, 12]: 64 µM (≈ 9.29 µg/mL); MIC [1, 13]: 64 µM (≈ 9.29 µg/mL); MIC [2, 14]: 32 µM (≈ 4.65 µg/mL); MIC [2, 15]: 32 µM (≈ 4.65 µg/mL)
16 | CC(=O)Nc1ccc(O)cc1 [Paracetamol, reference compound] | > 1000 | > 1000 | – | – | – | > 1000 | > 1000 | – | – | – | – | – | – | – | – | – | –
